Measured values from PubChem BioAssay AID330 (DTP/NCI, 2004).
Values joined by “and” are separate entries in the source; they are usually repeats but may differ in a detail not shown here. Equal values may be shown once. Inconclusive results and toxic doses are left out.

Tested on: P388 leukemia ip, CD2F1 mice, survival T/C
Experiment: NCI In Vivo Anticancer Drug Screen. Data for tumor model P388 Leukemia (intraperitoneal) in CD2F1 (CDF1) mice
Conditions: endpoint: median survival time, higher = longer survival
Procedure, shortened: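 Mice carrying the transplanted tumor received test compound or vehicle. Survival was recorded in each group, and the value is the treated-group measurement divided by that of the vehicle-treated control group.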

[1] = dose: 50.0 mg/kg/injection, schedule: Q01DX005 (ip), vehicle: saline with Tween-80
[2] = dose: 100.0 mg/kg/injection, schedule: Q01DX005 (ip), vehicle: saline with Tween-80
[3] = dose: 100.0 mg/kg/injection, schedule: Q04DX003 (ip), vehicle: saline with Tween-80
[4] = dose: 200.0 mg/kg/injection, schedule: Q04DX003 (ip), vehicle: saline with Tween-80
[5] = dose: 400.0 mg/kg/injection, schedule: Q04DX003 (ip), vehicle: saline with Tween-80
[6] = dose: 25.0 mg/kg/injection, schedule: Q01DX009 (ip), vehicle: saline with Tween-80
[7] = dose: 50.0 mg/kg/injection, schedule: Q01DX009 (ip), vehicle: saline with Tween-80
[8] = dose: 200.0 mg/kg/injection, schedule: Q01DX005 (ip), vehicle: saline with Tween-80
[9] = dose: 100.0 mg/kg/injection, schedule: Q01DX009 (ip), vehicle: saline with Tween-80
[10] = dose: 50.0 mg/kg/injection, schedule: Q01DX005 (ip), vehicle: Klucel (hydroxypropylcellulose) (HPC)
[11] = dose: 100.0 mg/kg/injection, schedule: Q01DX005 (ip), vehicle: Klucel (hydroxypropylcellulose) (HPC)
[12] = dose: 200.0 mg/kg/injection, schedule: Q01DX005 (ip), vehicle: Klucel (hydroxypropylcellulose) (HPC)
[13] = dose: 200.0 mg/kg/injection, schedule: Q01DX009 (ip), vehicle: saline with Tween-80
[14] = dose: 60.0 mg/kg/injection, schedule: Q01DX005 (ip), vehicle: Klucel (hydroxypropylcellulose) (HPC)
[15] = dose: 120.0 mg/kg/injection, schedule: Q01DX005 (ip), vehicle: Klucel (hydroxypropylcellulose) (HPC)
[16] = dose: 240.0 mg/kg/injection, schedule: Q01DX005 (ip), vehicle: Klucel (hydroxypropylcellulose) (HPC)

In the case of `CCCN1CC=CCC1`, the T/C (dose: 60.0 mg/kg/injection, schedule: Q01DX005 (ip), vehicle: saline) is reported as 100 % of control, the T/C (dose: 120.0 mg/kg/injection, schedule: Q01DX005 (ip), vehicle: saline) is reported as 100 % of control and the T/C (dose: 240.0 mg/kg/injection, schedule: Q01DX005 (ip), vehicle: saline) is reported as 100 % of control.
For `COC12C=CC(=O)N1CCC2` (stereo unspecified), the T/C (dose: 7.5 mg/kg/injection, schedule: Q01DX005 (ip), vehicle: DMSO) was 90 % of control, the T/C (dose: 15.0 mg/kg/injection, schedule: Q01DX005 (ip), vehicle: DMSO) was 101 % of control and the T/C (dose: 30.0 mg/kg/injection, schedule: Q01DX005 (ip), vehicle: DMSO) was 101 % of control.
For `O=C1/C(=C\c2ccccc2)SC(=S)N1c1cccc(Br)c1`, the T/C (dose: 25.0 mg/kg/injection, schedule: Q01DX005 (ip), vehicle: saline with Tween-80) was 87 % of control, the T/C [1] was 97 % of control and the T/C [2] was 106 % of control.
In the case of `Cc1cccc(Cl)c1NC(=O)CS`, the T/C [3] is reported as 100 % of control, the T/C [4] is reported as 104 % of control and the T/C [5] is reported as 100 % of control.
In the case of `O=[N+]([O-])c1cccc2nsnc12`, the T/C (dose: 6.25 mg/kg/injection, schedule: Q01DX009 (ip), vehicle: saline with Tween-80) is reported as 100 % of control, the T/C (dose: 12.5 mg/kg/injection, schedule: Q01DX009 (ip), vehicle: saline with Tween-80) is reported as 116 % of control and the T/C [6] is reported as 94 % of control. The T/C [7] was 107 % of control.
For `O=C1OCCC1C(=O)C(O)(C(F)(F)F)C(F)(F)F` (stereo unspecified), the T/C (dose: 50.0 mg/kg/injection, schedule: Q01DX001 (ip), vehicle: other) was 100 % of control, the T/C (dose: 100.0 mg/kg/injection, schedule: Q01DX001 (ip), vehicle: other) was 95 % of control and the T/C (dose: 200.0 mg/kg/injection, schedule: Q01DX001 (ip), vehicle: other) was 91 % of control.
With `COC1=CC(=C(c2ccc(O)c(OC)c2)c2ccc(O)c(OC)c2)C=CC1=O` the T/C [1] was 117 % of control, the T/C [2] was 119 % of control and the T/C [8] was 115 % of control.
`Cc1cnc(C)c2ccccc12` was tested, and the T/C [7] was 109 % of control and the T/C [9] was 117 % of control.
In the case of `CCCOC1CC(C)(O)Cc2cc3c(c(O)c21)C(=O)c1c(O)cc2c(c1C3=O)OC1OC2(C)C(O)C(N(C)C)C1O` (stereo unspecified), the T/C (dose: 1.56 mg/kg/injection, schedule: Q01DX009 (ip), vehicle: other) is reported as 124 % of control and the T/C (dose: 3.13 mg/kg/injection, schedule: Q01DX009 (ip), vehicle: other) is reported as 150 % of control.
In the case of `CCOC(=O)C1=C(C)OC(N)=C(C#N)C12C(=O)N(C)C(=O)c1ccccc12` (stereo unspecified), the T/C [10] is reported as 101 % of control, the T/C [11] is reported as 103 % of control and the T/C [12] is reported as 96 % of control.
`CCOC([O-])=N/C(C)=N/[n+]1ccccc1` was tested, and the T/C (dose: 50.0 mg/kg/injection, schedule: Q01DX009 (ip), vehicle: saline) was 104 % of control, the T/C (dose: 100.0 mg/kg/injection, schedule: Q01DX009 (ip), vehicle: saline) was 104 % of control and the T/C (dose: 200.0 mg/kg/injection, schedule: Q01DX009 (ip), vehicle: saline) was 98 % of control.
In the case of `Cc1ccccc1CS`, the T/C [7] is reported as 113 % of control, the T/C [9] is reported as 113 % of control and the T/C [13] is reported as 113 % of control.
For `Cc1noc(NCc2ccccc2)c1C`, the T/C [3] was 104 % of control, the T/C [4] was 101 % of control and the T/C [5] was 100 % of control.
In the case of `O=C1C=C(N2CC2)C(=O)C=C1N1CC1`, the T/C (dose: 0.12 mg/kg/injection, schedule: Q01DX009 (ip), vehicle: saline) is reported as 157 % of control, the T/C (dose: 0.25 mg/kg/injection, schedule: Q01DX009 (ip), vehicle: saline) is reported as 150 % of control and 170 % of control and 196 % of control and the T/C (dose: 0.5 mg/kg/injection, schedule: Q01DX009 (ip), vehicle: saline) is reported as 153 % of control and 185 % of control and 206 % of control. The T/C (dose: 1.0 mg/kg/injection, schedule: Q01DX009 (ip), vehicle: saline) was 95 % of control.
In the case of `CN(C)c1ccsc(=S)c1`, the T/C (dose: 6.25 mg/kg/injection, schedule: Q01DX005 (ip), vehicle: Klucel (hydroxypropylcellulose) (HPC)) is reported as 102 % of control, the T/C (dose: 12.5 mg/kg/injection, schedule: Q01DX005 (ip), vehicle: Klucel (hydroxypropylcellulose) (HPC)) is reported as 101 % of control and the T/C (dose: 25.0 mg/kg/injection, schedule: Q01DX005 (ip), vehicle: Klucel (hydroxypropylcellulose) (HPC)) is reported as 105 % of control. The T/C [10] was 98 % of control.
In the case of `CCN(CC)C(=O)C1CN2CCc3cc(OC)c(OC)cc3C2CC1O` (stereo unspecified), the T/C [10] is reported as 104 % of control and 108 % of control, the T/C [11] is reported as 106 % of control and 109 % of control and the T/C [12] is reported as 123 % of control.
`CCCCCC1OC1CC1OC1CCCCCCCC(=O)OC` (stereo unspecified) was tested, and the T/C [10] was 96 % of control, the T/C [11] was 96 % of control and the T/C [12] was 104 % of control.
For `CC(C)(C)C1=CC(C#N)N(Cc2ccccc2)CC1` (stereo unspecified), the T/C [14] was 110 % of control, the T/C [15] was 108 % of control and the T/C [16] was 109 % of control.
`Cc1cc(-n2c(C)nc3ccccc3c2=O)on1` was tested, and the T/C [14] was 101 % of control, the T/C [15] was 93 % of control and the T/C [16] was 104 % of control.
In the case of `NCCc1nc(-c2nc(C(=O)Nc3ccccc3)cs2)cs1`, the T/C (dose: 12.5 mg/kg/injection, schedule: Q01DX009 (ip), vehicle: distilled water + Tween-80) is reported as 100 % of control, the T/C (dose: 25.0 mg/kg/injection, schedule: Q01DX009 (ip), vehicle: distilled water + Tween-80) is reported as 103 % of control and the T/C (dose: 50.0 mg/kg/injection, schedule: Q01DX009 (ip), vehicle: distilled water + Tween-80) is reported as 103 % of control. The T/C (dose: 100.0 mg/kg/injection, schedule: Q01DX009 (ip), vehicle: distilled water + Tween-80) was 100 % of control.
In the case of `CCN(CC)CCOc1ccc(Cl)c(Cl)c1`, the T/C [1] is reported as 101 % of control, the T/C [2] is reported as 106 % of control and the T/C [8] is reported as 106 % of control.
With `CSC1(SC)CCN(C)C1=O` the T/C [6] was 90 % of control, the T/C [7] was 93 % of control and the T/C [9] was 92 % of control.
With `Cc1[nH]c(=O)[nH]c(=O)c1/C=C/C(=O)NC(CO)CS(C)=O` (stereo unspecified) the T/C (dose: 0.07 mg/kg/injection, schedule: Q01DX009 (ip), vehicle: water) was 108 % of control, the T/C (dose: 0.15 mg/kg/injection, schedule: Q01DX009 (ip), vehicle: water) was 106 % of control and 100 % of control and the T/C (dose: 0.3 mg/kg/injection, schedule: Q01DX009 (ip), vehicle: water) was 92 % of control and 110 % of control. The T/C (dose: 0.6 mg/kg/injection, schedule: Q01DX009 (ip), vehicle: water) was 98 % of control and 110 % of control, the T/C (dose: 1.2 mg/kg/injection, schedule: Q01DX009 (ip), vehicle: water) was 112 % of control and the T/C (dose: 2.0 mg/kg/injection, schedule: Q01DX009 (ip), vehicle: water) was 118 % of control. For the same compound, the T/C (dose: 4.0 mg/kg/injection, schedule: Q01DX009 (ip), vehicle: water) was 120 % of control, the T/C (dose: 16.0 mg/kg/injection, schedule: Q01DX009 (ip), vehicle: water) was 111 % of control and the T/C (dose: 40.0 mg/kg/injection, schedule: Q01DX009 (ip), vehicle: water) was 102 % of control. The T/C (dose: 64.0 mg/kg/injection, schedule: Q01DX009 (ip), vehicle: water) was 116 % of control and 123 % of control and the T/C (dose: 128.0 mg/kg/injection, schedule: Q01DX009 (ip), vehicle: water) was 124 % of control.
For `CC[C@@]1(O)C[C@H](OC2CC(N(C)C)C(OC3CC(O)C(OC4CC(O)C(O)C(C)O4)C(C)O3)C(C)O2)c2c(cc3c(c2O)C(=O)c2c(O)ccc(O)c2C3=O)[C@H]1C(=O)OC` (stereo partly specified), the T/C (dose: 1.8 mg/kg/injection, schedule: Q04DX003 (ip), vehicle: water) was 157 % of control, the T/C (dose: 2.7 mg/kg/injection, schedule: Q04DX003 (ip), vehicle: water) was 155 % of control and the T/C (dose: 3.8 mg/kg/injection, schedule: Q01DX001 (ip), vehicle: other) was 163 % of control. For the same compound, the T/C (dose: 7.5 mg/kg/injection, schedule: Q01DX001 (ip), vehicle: other) was 157 % of control.
With `N#CC1(C#N)C2C=CC(C2)N1OC(=O)c1ccc([N+](=O)[O-])cc1` (stereo unspecified) the T/C [7] was 95 % of control, the T/C [9] was 92 % of control and the T/C [13] was 95 % of control.
In the case of `COc1ccc2nc3cc(Cl)ccc3c(Nc3ccccc3NS(C)(=O)=O)c2n1`, the T/C (dose: 12.5 mg/kg/injection, schedule: Q01DX009 (ip), vehicle: other) is reported as 103 % of control, the T/C (dose: 25.0 mg/kg/injection, schedule: Q01DX009 (ip), vehicle: other) is reported as 105 % of control and the T/C (dose: 50.0 mg/kg/injection, schedule: Q01DX009 (ip), vehicle: other) is reported as 105 % of control. For the same compound, the T/C (dose: 100.0 mg/kg/injection, schedule: Q01DX009 (ip), vehicle: other) was 111 % of control and 112 % of control and the T/C (dose: 200.0 mg/kg/injection, schedule: Q01DX009 (ip), vehicle: other) was 106 % of control.
